Active and inactive are the calls of the source.
What was measured:
[1] = viability of uninfected HEp-2 cells – cell-based, HTS, cytotoxicity control for RSV inhibitor project, dose response (AID 2410); type: functional; conditions: human respiratory syncytial virus
[2] = target: Genome polyprotein (dengue virus type 2, UniProt P29990); test: flavivirus cap methylation enzyme inhibition – biochemical, confirmation dose response, primary screen (AID 588689); type: functional
[3] = target: T1, Voltage-gated N-type calcium channel alpha-1B subunit/Amyloid beta A4 precursor protein-binding family A member 1 (Homo sapiens, UniProt Q00975+Q02410); type: protein assay
[4] = reduction of Shn3 3'UTR-driven luciferase in osteoblasts – cell-based, Clone20 osteoblasts, firefly luciferase, cherry-picked, dose response (AID 624132); type: functional;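 note: firefly luciferase luminescence from reporter carrying the Shn3 3'UTR in osteoblasts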
[5] = target: DNA damage-inducible transcript 3 protein (Mus musculus, UniProt P35639); type: functional, Cricetulus griseus
[6] = target: Large T antigen (Simian virus 40, UniProt P03070); type: functional, Betapolyomavirus macacae;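 note: Confirmatory-stage PubChem screen for compounds that inhibit SV40 T antigen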
[7] = target: Neurotensin receptor type 1 (Homo sapiens, UniProt P30989); type: functional;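 note: Image-based confirmatory dose-response assay measuring agonist activity at NTR1; NTR1-expressing U2OS osteosarcoma cells imaged for beta-arrestin GFP spot formation; agonist potency where compounds increase beta-arrestin recruitment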
[8] = target: T2, Rac GTPase-activating protein 1 (Homo sapiens, UniProt Q9H0H5); test: blockers of MgcRacGAP-driven Rac1 GTP hydrolysis – biochemical, ADP Hunter fluorescence, primary and confirmatory, confirmation (AID 624330); type: functional
T2 sequence (Q9H0H5 whole entry): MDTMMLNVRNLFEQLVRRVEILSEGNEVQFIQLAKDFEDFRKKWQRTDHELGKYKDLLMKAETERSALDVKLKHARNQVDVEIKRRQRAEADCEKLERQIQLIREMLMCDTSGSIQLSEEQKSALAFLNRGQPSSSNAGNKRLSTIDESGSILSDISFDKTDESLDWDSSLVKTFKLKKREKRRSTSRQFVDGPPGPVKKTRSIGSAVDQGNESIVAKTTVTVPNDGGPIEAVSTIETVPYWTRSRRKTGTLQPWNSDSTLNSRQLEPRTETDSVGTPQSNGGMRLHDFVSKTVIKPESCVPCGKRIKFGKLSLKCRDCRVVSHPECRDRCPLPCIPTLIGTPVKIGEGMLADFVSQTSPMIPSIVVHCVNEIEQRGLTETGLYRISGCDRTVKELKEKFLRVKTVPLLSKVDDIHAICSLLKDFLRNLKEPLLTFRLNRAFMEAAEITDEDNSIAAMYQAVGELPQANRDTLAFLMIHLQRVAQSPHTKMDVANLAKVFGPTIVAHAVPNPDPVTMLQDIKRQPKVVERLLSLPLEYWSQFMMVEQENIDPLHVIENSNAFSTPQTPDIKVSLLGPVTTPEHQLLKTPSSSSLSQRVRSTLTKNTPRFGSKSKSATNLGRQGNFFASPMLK

[9] = viability loss in HeLa cells – cytotoxicity control for MgcRacGAP inhibitor project, dose response (AID 624300); type: functional
[10] = target: T1, Voltage-gated N-type calcium channel alpha-1B subunit/Amyloid beta A4 precursor protein-binding family A member 1; type: protein assay; remark: listed apart in the source
[11] = non-specific 3'UTR reporter inhibition in Clone20-Shn3RL – cell-based, Renilla luciferase, cherry-picked, counter-screen for Shn3 inhibitor project, dose response (AID 624133); type: functional
[12] = test system: INS1; test: INS-1E survival protection against cytokine death – cell-based, luminescence, retest, dose response (AID 449756); type: functional; conditions: Rattus norvegicus;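 note: cell death triggered by IL-1 beta plus TNF-alpha plus IFN-gamma mixture; protective hits raise ATP signal compared with cytokine alone wells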
[13] = Vero E6 cell cytotoxicity, dose response, cytotoxicity control for non-replicating M. tuberculosis project, secondary assay (AID 492998); type: functional, VeroE6; conditions: Vero C1008
[14] = target: T3, Replicative DNA helicase DnaB (Mycobacterium tuberculosis, UniProt P9WMR3); test: DnaB intein splicing inhibitors, dose response, biochemical, cell-free fluorescence (AID 449749); type: functional
T3 sequence (P9WMR3 whole entry): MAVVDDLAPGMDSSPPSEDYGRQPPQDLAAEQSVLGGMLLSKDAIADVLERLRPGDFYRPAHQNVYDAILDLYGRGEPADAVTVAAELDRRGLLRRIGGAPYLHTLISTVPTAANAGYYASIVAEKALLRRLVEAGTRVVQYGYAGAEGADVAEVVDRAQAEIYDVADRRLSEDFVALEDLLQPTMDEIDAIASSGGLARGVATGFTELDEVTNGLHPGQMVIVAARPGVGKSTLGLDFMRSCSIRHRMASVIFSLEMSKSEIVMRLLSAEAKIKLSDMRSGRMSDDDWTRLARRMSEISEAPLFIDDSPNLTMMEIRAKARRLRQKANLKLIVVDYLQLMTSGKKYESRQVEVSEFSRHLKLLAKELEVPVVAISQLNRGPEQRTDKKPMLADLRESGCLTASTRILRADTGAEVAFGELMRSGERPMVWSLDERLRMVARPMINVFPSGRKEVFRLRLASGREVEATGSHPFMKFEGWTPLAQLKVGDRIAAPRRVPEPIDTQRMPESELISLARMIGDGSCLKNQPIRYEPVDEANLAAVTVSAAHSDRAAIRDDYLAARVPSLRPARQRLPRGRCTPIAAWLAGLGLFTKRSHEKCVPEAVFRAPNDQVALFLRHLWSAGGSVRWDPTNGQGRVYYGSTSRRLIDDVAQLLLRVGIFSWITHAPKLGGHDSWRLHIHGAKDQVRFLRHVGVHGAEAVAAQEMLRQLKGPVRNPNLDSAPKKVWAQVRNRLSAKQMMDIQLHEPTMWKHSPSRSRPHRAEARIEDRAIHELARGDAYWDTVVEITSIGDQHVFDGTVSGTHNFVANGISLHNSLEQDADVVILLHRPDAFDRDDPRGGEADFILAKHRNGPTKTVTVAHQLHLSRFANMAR

[15] = viability of PTEN-deleted HCT116 cells – cell-based, HCT116 PTEN knockout, dose response (AID 1047); type: functional;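 note: HCT116 colon tumor cells with PTEN knocked out; cells exposed to compound for 60 hours before readout; potency for loss of cell viability measured by luminescence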
[16] = Intein inhibitors as potential Tuberculosis drugs, a cytotoxicity screen. [Related pubchem assays (depositor defined):AID2221, AID2223, AID434968, AID435010, AID449749, AID449750, AID489010]; type: functional
[17] = target: T4, Heat shock factor protein 1 (Mus musculus, UniProt P38532); test: enhancement of HSF1-driven luciferase signal – cell-based, NIH3T3, luminescence, dose retest, confirmation (AID 435004); type: functional;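 note: stress induced by proteasome inhibitor MG132 added 30 min after compound; luciferase reporter driven by HSF1 response element in NIH3T3 cells; actives raise luminescence as potentiators of the MG132 stress response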
T4 sequence (P38532 whole entry): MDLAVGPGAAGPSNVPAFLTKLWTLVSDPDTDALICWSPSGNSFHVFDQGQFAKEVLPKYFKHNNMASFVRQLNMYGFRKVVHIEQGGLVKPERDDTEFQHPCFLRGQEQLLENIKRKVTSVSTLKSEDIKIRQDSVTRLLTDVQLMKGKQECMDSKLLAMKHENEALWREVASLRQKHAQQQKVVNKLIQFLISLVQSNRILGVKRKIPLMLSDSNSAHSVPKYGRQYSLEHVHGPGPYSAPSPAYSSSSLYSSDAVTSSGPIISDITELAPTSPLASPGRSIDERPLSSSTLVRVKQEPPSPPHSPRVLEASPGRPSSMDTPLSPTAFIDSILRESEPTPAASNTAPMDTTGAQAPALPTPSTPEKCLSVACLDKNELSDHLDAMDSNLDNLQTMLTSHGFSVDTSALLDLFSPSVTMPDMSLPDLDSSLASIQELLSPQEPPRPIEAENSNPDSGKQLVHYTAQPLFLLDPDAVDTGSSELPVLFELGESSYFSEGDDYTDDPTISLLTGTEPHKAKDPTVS

[18] = target: T5, Protein RecA (Mycobacterium tuberculosis, UniProt P9WHJ3); test: Fluorescence Cell-Free Homogeneous Dose Retest to Identify Inhibitors of RecA-Intein Splicing Activity. [Related pubchem assays (depositor defined):AID2097, AID2223, AID489010, AID492950]; type: functional
T5 sequence (P9WHJ3 whole entry): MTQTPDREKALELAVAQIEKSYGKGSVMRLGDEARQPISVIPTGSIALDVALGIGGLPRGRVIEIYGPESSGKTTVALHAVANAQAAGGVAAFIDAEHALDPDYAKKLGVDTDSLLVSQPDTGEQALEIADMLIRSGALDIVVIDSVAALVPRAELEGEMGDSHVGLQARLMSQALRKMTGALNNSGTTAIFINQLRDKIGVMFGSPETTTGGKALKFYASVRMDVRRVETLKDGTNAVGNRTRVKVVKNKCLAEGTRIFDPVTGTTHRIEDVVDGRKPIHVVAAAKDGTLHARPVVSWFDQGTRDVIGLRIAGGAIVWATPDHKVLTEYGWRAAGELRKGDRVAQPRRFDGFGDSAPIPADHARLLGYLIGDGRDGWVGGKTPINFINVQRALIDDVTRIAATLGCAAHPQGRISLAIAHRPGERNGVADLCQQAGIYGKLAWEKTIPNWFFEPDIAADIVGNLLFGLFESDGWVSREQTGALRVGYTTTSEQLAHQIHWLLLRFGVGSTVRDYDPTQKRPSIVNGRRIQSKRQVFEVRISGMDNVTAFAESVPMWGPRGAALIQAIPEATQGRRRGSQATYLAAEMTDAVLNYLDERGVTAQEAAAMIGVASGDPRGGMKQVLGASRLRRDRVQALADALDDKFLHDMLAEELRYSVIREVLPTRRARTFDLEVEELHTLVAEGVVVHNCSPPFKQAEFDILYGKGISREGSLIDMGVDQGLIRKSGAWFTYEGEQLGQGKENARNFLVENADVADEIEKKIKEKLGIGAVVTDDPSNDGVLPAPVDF

[19] = viability of HCT116 lacking mutant beta-catenin – cell-based, human colon tumor, dose response (AID 1045); type: functional;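 note: HCT116 colon tumor cells with beta catenin knocked out; cells exposed to compound for 60 hours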
[20] = target: Troponin, cardiac muscle (Homo sapiens, UniProt P19429+P45379+P63316); test: Fluorescence-based biochemical high throughput dose response assay for activators of the calcium sensitivity of cardiac Regulated Thin Filaments (RTF). [Related pubchem assays (depositor defined):AID493008, AID493018, AID504382, AID504383]; type: protein-complex assay
[21] = microbe, parasite or virus in culture; type: functional; conditions: Mycobacterium tuberculosis
[22] = target: T6, Kappa-type opioid receptor (Homo sapiens, UniProt P41145); test: SAR analysis of small molecule antagonists of the kappa opioid receptor via a luminescent beta-arrestin assay - Set 4. [Related pubchem assays (depositor defined):AID1777, AID1778, AID1785, AID1786, AID1966, AID2133, AID2136, AID2285]; type: functional
[23] = target: T6, Kappa-type opioid receptor; test: SAR analysis of small molecule antagonists of the kappa opioid receptor via a luminescent beta-arrestin assay - Set 5. [Related pubchem assays (depositor defined):AID1778, AID1785]; type: functional
[24] = target: Paired box protein Pax-8 (Homo sapiens, UniProt Q06710); test: PAX8 transcriptional activity inhibition in RMG-I – RMG-I cells, luciferase, cherry-pick, dose response (AID 687027); type: functional, cell-based;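 note: luciferase reporter driven by Pax8 target thyroperoxidase promoter measured by SteadyGlo luminescence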
[25] = HEK-293T viability loss after treatment – luminescence, T-cell screen hits, cytotoxicity control for TCR NF-kB inhibitor project, dose response (AID 489026); type: functional, cell-based;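 note: cells exposed to compound about 14 hours before the viability readout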
[26] = target: T7, Tyrosine-protein phosphatase non-receptor type 22 (Homo sapiens, UniProt Q9Y2R2); type: functional
[27] = target: Tyrosine-protein phosphatase non-receptor type 7 (Homo sapiens, UniProt P35236); type: functional
[28] = target: T7, Tyrosine-protein phosphatase non-receptor type 22; type: functional; remark: listed apart in the source
[29] = test system: T-cell; test: loss of vesicle association with mouse CD8+ T cells – mouse 2C CD8+ T cells, flow cytometry, dose response (AID 485284); type: functional
[30] = target: Integrin alpha-L (Mus musculus, UniProt P24063); test: modulators of CD8 T cell-vesicle binding, dose response, powder samples, mouse 2C CD8+ cells (AID 504565); type: functional

Cc1ccc(-c2ccc(/C=C3\C(=O)ON=C3c3ccccc3)o2)c([N+](=O)[O-])c1
CC50 [1]: 9.29 µM (active)
IC50 [2]: 11.1 µM (active)
IC50 [3]: 10.5 µM (active)
AC50 [4]: 3.3 µM (active)
Absolute IC50 (CHOP) [5]: 10 µM
IC50 [6]: 29.5 µM (active)
EC50 [7]: 7.89 µM (active)
IC50 [8]: 67.2 µM (active)
CC50 [9]: 50 µM (active)
IC50 [10]: > 50 µM (inactive)
AC50 [11]: 15 µM (active)
AC50 [12]: 7.23 µM (active)

O=C(CCS(=O)(=O)Cc1ccccc1)Nc1ncc([N+](=O)[O-])s1
CC50 [13]: > 20 µM (active)

Cc1cc(C)cc(Cn2ncc(Cl)c(Cl)c2=O)c1
AC50 [14]: 2.12 µM (active)
EC50 [15]: 8.8 µM (active)
CC50 [16]: 22.5 µM (active)
EC50 [17]: 21.7 µM (active)
EC50 [18]: 0.985 µM (active)
EC50 [19]: 6.91 µM (active)

CC(Oc1ccc(F)cc1)C(=O)Nc1sc2c(c1C(=O)NCc1cccnc1)CCCC2 (stereo unspecified)
EC50 [20]: > 71.5 µM (inactive)
CC50 [21]: > 40 µM (active)

Cc1ccc(S(=O)(=O)NCc2ccc(C(=O)NCCN(Cc3ccccc3)CC(C)C)cc2)cc1
IC50 [22]: > 20 µM (inactive)
IC50 [23]: 4.33 µM (active)

COc1ccc(C[C@H](N)C(=O)N[C@H]2[C@@H](O)[C@H](n3cnc4c(N(C)C)ncnc43)O[C@@H]2CO)cc1
AC50 [24]: 0.546 µM (active)
IC50 [25]: > 80 µM (inactive)
CC50 [21]: 4.73 µM (active)

O=C(NCc1ccccc1)c1cncc(Br)c1
IC50 [26]: > 79.4 µM (inactive)
IC50 [27]: > 79.4 µM (inactive)
IC50 [28]: > 79.4 µM (inactive)

CCOC(=O)c1ccc(S(=O)(=O)N2CCN(C3CCCC3)CC2)cc1
EC50 [29]: 22.2 µM (active)
EC50 [30]: 11 µM (active)

— ChEMBL document CHEMBL1201862, “PubChem BioAssay data set” (2004)
